How the values were obtained:
[1] = Release of interferon from implants incubated in phosphate buffered saline; format: physicochemical; conditions: 30 vol % NaCl/PCL tubing filled with 20 mg α-interferon suspension in SAIB, ends sealed
Method: Using nitrogen gas as the core feed, a mixture comprising 30 vol % NaCl in PCL was extruded as described above through the outer ring of a coaxial die to form tubing having an overall diameter of about 3 mm. Implants containing α-interferon were prepared from the tubing by filling a short length of tubing with a suspension containing 20 mg of α-interferon in sucrose acetate isobutyrate (SAIB) and sealing the ends of the tube.
The implants, when incubated in phosphate buffered saline, released interferon for several days.

[2] = In vitro dissolution of cromolyn sodium coaxial implants; format: physicochemical; conditions: 50 wt % cromolyn/PCL core, PBS pH 7.4, 37° C.
Method: Coaxial rods were produced by operating the two Randcastle extruders simultaneously. The core material (cromolyn/PCL) was fed through the center orifice of the die on the first extruder to form the implant core. […] Individual implants with a diameter of approximately 2 mm were cut to a length of 2 cm. The exposed ends were sealed with the same polymer as the membrane. Cromolyn release was determined in vitro using a simple dissolution test. Individual implants were placed in 4-oz amber jars with 40 mL of buffer (phosphate buffered saline, pH 7.4, with 0.05% sodium azide) and incubated at 37° C. Periodically, aliquots of buffer were removed and replaced with fresh buffer. The cromolyn concentration in each sample was determined by HPLC.

Compound | duration of interferon release [1] | effect of membrane thickness on release of cromolyn ([2]; 30 vol % cromolyn/PCL membrane (pore-forming agent), FIG. 8) | release from sealed versus unsealed implant ([2]; 30 vol % lactose/PCL membrane, FIG. 9)
α-interferon | several days | – | –
O=C(O)c1cc(=O)c2c(OCC(O)COc3cccc4oc(C(=O)O)cc(=O)c34)cccc2o1 [cromolyn, cromolyn sodium] | – | A thicker polymer membrane causes slower release | the unsealed implant releases faster than the sealed
